Source: patent US7834048B2, “Azabicycloheptyl compounds suitable for treating disorders that respond to modulation of the dopamine D3 receptor” (Abbott GmbH & Co. KG, priority 2004, dated 2010)

Legend:
[1] = molecular target: T1, human dopamine D3 receptors (Homo sapiens, UniProt P35462); assay: Dopamine D3 receptor binding, [125I]-iodosulpride displacement, HEK-293 membranes; conditions: for Ki(D2)*/Ki(D3)*: selectivity, ratio of receptor binding constants D2L vs D3; for Ki: receptor binding constant, membranes of HEK-293 cells, 0.1 nM [125I]-iodosulpride, 25° C., 60 minutes
T1 construct: expressed in transfected cells
Method: (§1) The substance to be tested was either dissolved in methanol/Chremophor® (BASF-AG) or in dimethyl sulfoxide and then diluted with water to the desired concentration.
(§2) Each assay mixture was run in triplicate.
The incubation buffer contained 50 mM tris, 120 mM NaCl, 5 mM KCl, 2 mM CaCl2, 2 mM MgCl2 and 0.1% bovine serum albumin, 10 μM […] and 0.1% ascorbic acid (prepared fresh daily). The buffer was adjusted to pH 7.4 with HCl.
(§3) After having been incubated at 25° C. for 60 minutes, the assay mixtures were filtered through a Whatman GF/B glass fiber filter under vacuum using a cell collecting device. The filters were transferred to scintillation viols using a filter transfer system. After 4 ml of Ultima Gold® (Packard) have been added, the samples were shaken for one hour and the radioactivity was then counted in a Beta-Counter (Packard, Tricarb 2000 or 2200CA). The cpm values were converted into dpm using a standard quench series and the program belonging to the instrument.
(§4) The inhibition curves were analyzed by means of iterative nonlinear regression analysis using the Statistical Analysis System (SAS) which is similar to the “LIGAND” program described by Munson and Rodbard.
(§5) The results of the receptor binding studies are expressed as receptor binding constants Ki(D2) and Ki(D3), respectively, as herein before described, and given in table 1.

[2] = molecular target: T2, human dopamine D2L receptors (long isoform) (Homo sapiens, UniProt P14416); assay: Dopamine D2L receptor binding, [125I]iodospiperone displacement, HEK-293 membranes; conditions: receptor binding constant; membranes of HEK-293 cells, 0.01 nM [125I]iodospiperone, 25° C., 60 minutes; read-out: Ki(D2)*
T2 construct: expressed in transfected cells
Method: as §1, §2
The incubation buffer contained 50 mM tris, 120 mM NaCl, 5 mM KCl, 2 mM CaCl2, 2 mM MgCl2 and 0.1% bovine serum albumin. The buffer was adjusted to pH 7.4 with HCl.
as §3, §4, §5

T1 sequence (P35462 whole entry): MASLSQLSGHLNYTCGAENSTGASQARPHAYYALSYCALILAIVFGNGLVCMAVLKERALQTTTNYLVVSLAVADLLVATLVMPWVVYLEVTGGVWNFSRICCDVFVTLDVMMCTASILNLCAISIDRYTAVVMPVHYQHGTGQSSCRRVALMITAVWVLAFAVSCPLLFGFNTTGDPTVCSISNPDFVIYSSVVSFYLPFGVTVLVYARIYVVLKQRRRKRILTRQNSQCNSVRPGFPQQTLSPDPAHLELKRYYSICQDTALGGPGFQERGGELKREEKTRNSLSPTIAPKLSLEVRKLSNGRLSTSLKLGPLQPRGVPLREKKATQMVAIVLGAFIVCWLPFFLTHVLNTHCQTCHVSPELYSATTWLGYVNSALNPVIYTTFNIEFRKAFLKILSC
T2 sequence (P14416 whole entry, canonical isoform): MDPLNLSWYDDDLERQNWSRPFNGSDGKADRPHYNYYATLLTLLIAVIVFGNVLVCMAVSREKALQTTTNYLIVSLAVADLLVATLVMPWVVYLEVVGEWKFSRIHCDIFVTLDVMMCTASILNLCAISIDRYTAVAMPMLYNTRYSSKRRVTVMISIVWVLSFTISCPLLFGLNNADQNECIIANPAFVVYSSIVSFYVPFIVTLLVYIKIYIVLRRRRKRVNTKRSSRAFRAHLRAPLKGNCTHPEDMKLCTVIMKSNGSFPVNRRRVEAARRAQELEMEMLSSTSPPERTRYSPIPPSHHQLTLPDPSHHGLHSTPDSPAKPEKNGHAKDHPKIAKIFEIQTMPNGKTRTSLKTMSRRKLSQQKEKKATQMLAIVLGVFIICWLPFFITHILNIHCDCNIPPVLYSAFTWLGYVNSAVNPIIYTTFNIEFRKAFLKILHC

Compound	Ki(D2)*/Ki(D3)* [1]	Ki [2]	Ki [1]
CCCN1C[C@H]2C[C@H](c3ccc(NS(=O)(=O)c4ccc(C(C)C)cc4)cc3)[C@H]2C1 (relative stereo) [Example 3, 4-Isopropyl-N-[4-(exo-3-propyl-3-aza-bicyclo[3.2.0]hept-6-yl)-phenyl]-benzenesulfonamide]	45	–	–
CCCN1C[C@H]2C[C@@H](c3ccc(NS(=O)(=O)c4ccc(C(C)C)cc4)cc3)[C@H]2C1 (relative stereo) [Example 16, endo-4-Isopropyl-N-[4-(3-propyl-3-aza-bicyclo[3.2.0]hept-6-yl)-phenyl]-benzenesulfonamide]	39	208 nM	5.3 nM
CCCN1C[C@@H]2C[C@@H](c3ccc(NS(=O)(=O)c4ccc(C(C)C)cc4)cc3)[C@@H]2C1 [Example 1, 4-Isopropyl-N-[4-((1R,5S,6R)-3-propyl-3-aza-bicyclo[3.2.0]hept-6-yl)-phenyl]-benzenesulfonamide]	28	12.9 nM	0.47 nM
CCCN1C[C@@H]2C[C@@H](c3ccc(NS(=O)(=O)c4ccc(OC(F)(F)F)cc4)cc3)[C@@H]2C1 [Example 4, N-[4-((1R,5S,6R)-3-Propyl-3-aza-bicyclo[3.2.0]hept-6-yl)-phenyl]-4-trifluoromethoxy-benzenesulfonamide]	12	66.6 nM	5.43 nM
CCCN1C[C@@H]2C[C@@H](c3ccc(NS(=O)(=O)c4ccc(C(F)(F)F)cc4)cc3)[C@@H]2C1 [Example 5, N-[4-((1R,5S,6R)-3-Propyl-3-aza-bicyclo[3.2.0]hept-6-yl)-phenyl]-4-trifluoromethyl-benzenesulfonamide]	23	72.1 nM	3.15 nM
C=CCN1C[C@@H]2C[C@@H](c3ccc(NS(=O)(=O)c4ccc(OC(F)(F)F)cc4)cc3)[C@@H]2C1 [Example 6, N-[4-((1R,5S,6R)-3-Allyl-3-aza-bicyclo[3.2.0]hept-6-yl)-phenyl]-4-trifluoromethoxy-benzenesulfonamide]	11	47 nM	4.13 nM
CCCN1C[C@@H]2C[C@@H](c3ccc(NS(=O)(=O)c4ccc(Br)cc4)cc3)[C@@H]2C1 [Example 7, 4-Bromo-N-[4-((1R,5S,6R)-3-propyl-3-aza-bicyclo[3.2.0]hept-6-yl)-phenyl]-benzenesulfonamide]	24	31.7 nM	1.31 nM
CCCN1C[C@@H]2C[C@@H](c3ccc(NS(=O)(=O)c4ccc(SC(F)(F)F)cc4)cc3)[C@@H]2C1 [Example 8, N-[4-((1R,5S,6R)-3-Propyl-3-aza-bicyclo[3.2.0]hept-6-yl)-phenyl]-4-trifluoromethylsulfanyl-benzenesulfonamide]	17	30.2 nM	1.81 nM
CCCN1C[C@@H]2C[C@@H](c3ccc(NS(=O)(=O)c4ccc(N5CCC[C@@H]5COC)cc4)cc3)[C@@H]2C1 [Example 9, 4-((R)-2-Methoxymethyl-pyrrolidin-1-yl)-N-[4-((1R,5S,6R)-3-propyl-3-azabicyclo[3.2.0]hept-6-yl)-phenyl]-benzenesulfonamide]	13	54.8 nM	4.08 nM
CCCN1C[C@@H]2C[C@@H](c3ccc(NS(=O)(=O)c4ccc(N5CCCC5)cc4)cc3)[C@@H]2C1 [Example 10, N-[4-((1R,5S,6R)-3-Propyl-3-aza-bicyclo[3.2.0]hept-6-yl)-phenyl]-4-pyrrolidin-1-yl-benzenesulfonamide]	16	32 nM	1.98 nM
CCCN1C[C@@H]2C[C@@H](c3ccc(NS(=O)(=O)c4ccc(N5CCC5)cc4)cc3)[C@@H]2C1 [Example 11, 4-Azetidin-1-yl-N-[4-((1R,5S,6R)-3-propyl-3-aza-bicyclo[3.2.0]hept-6-yl)-phenyl]-benzenesulfonamide]	26	56.7 nM	2.19 nM
CCCN1C[C@@H]2C[C@@H](c3ccc(NS(=O)(=O)c4ccc(-c5ccco5)cc4)cc3)[C@@H]2C1 [Example 12, N-[4-((1R,5S,6R)-3-Propyl-3-aza-bicyclo[3.2.0]hept-6-yl)-phenyl]-4-furan-2-yl-benzenesulfonamide]	8	37.6 nM	4.46 nM
CCCN1C[C@@H]2C[C@@H](c3ccc(NS(=O)(=O)c4ccc(-c5cccs5)cc4)cc3)[C@@H]2C1 [Example 13, N-[4-((1R,5S,6R)-3-Propyl-3-aza-bicyclo[3.2.0]hept-6-yl)-phenyl]-4-thiophen-2-yl-benzenesulfonamide]	10	13.1 nM	1.32 nM
CCCN1C[C@H]2C[C@H](c3ccc(NS(=O)(=O)c4ccc(C(C)C)cc4)cc3)[C@H]2C1 [Example 14, 4-Isopropyl-N-[4-((1S,5R,6S)-3-propyl-3-aza-bicyclo[3.2.0]hept-6-yl)-phenyl]-benzenesulfonamide]	8	–	–
